Marks after values point to notes of the source that are not given here.
Tests used:
[1] = tested on: D-AMPH-induced hyperactivity; test: Inhibition of D-amphetamine-induced hyperactivity; format: in vivo; details: rats, p.o.; D-AMPH 1 mg/kg i.p.; distance traveled over 2 h
Description: Male Sprague–Dawley rats (200–250 g, N=4/treatment group) were habituated to Lucite locomotor activity chambers comprising an AccuScan activity monitoring system (AccuScan Instruments, Inc., Columbus, OH) were maintained in a quiet observation room kept under low light conditions. […] The rats were briefly removed from the activity chambers 60 min later to receive an injection of D-amphetamine hydrochloride (D-AMPH; 1 mg/kg in 1 ml/kg, i.p.). The animals were returned to the activity chambers, and locomotor activity was then recorded for 2 h using system software. Activity was quantitated as distance traveled (cm) over 2 h for each group. Inhibitory activity was calculated as the percent of total activity observed at each dose level of each drug versus animals receiving D-AMPH alone. An ID50 for inhibition of D-AMPH-induced hyperactivity was calculated for each compound.

[2] = tested on: serine 40 (S40)-phosphorylated tyrosine hydroxylase; test: Striatal tyrosine hydroxylase S40 phosphorylation state (CNSProfile immunoblotting); format: in vivo; details: mice, acute; ITI-007 3 mg/kg p.o., clozapine 5 i.p., aripiprazole 10 p.o., olanzapine 1 i.p., risperidone 3 p.o., haloperidol 1 i.p.; over 60 min; vs vehicle
Description: The effect of the selected compounds on the phosphorylation state of tyrosine hydroxylase (TH) was measured and quantitated as an indicator of the potential of each compound to perturb presynaptic dopamine synthesis in striatum. […] This technique preserves in vivo levels of brain protein phosphorylation ([Zhu et al. 2010]). […] Small aliquots of the homogenate were retained for protein determination by the bicinchoninic acid (BCA) protein assay method (Pierce Chemical Co., Rockford, IL). […] Immunoblotting was carried out using a phos-phorylation state-specific polyclonal antibody raised against […] (S40)-phosphorylated tyrosine hydroxylase (Chemicon, Temecula, CA) and a pan-TH monoclonal antibody for measuring the total protein levels (BD Biosciences, San Jose, CA). […] Antibody binding was detected and quantitated using a LiCor Odyssey infrared fluorescent detection system. Phosphorylation at each site detected by phospho-specific antibodies was quantified, normalized to total levels of the protein (non-phosphorylated), and expressed as percent±SEM of the level of phosphorylation in vehicle-treated control mice (N=6).

[3] = tested on: striatal dopamine metabolism; test: Striatal dopamine metabolism (HPLC-EC of DA, DOPAC, HVA); format: in vivo, mice; details: for DOPAC/DA, chronic (21 day) dosing, mean / HVA/DA, chronic (21 day) dosing, mean: striatum 2 h after last dose; for DOPAC/DA, acute (2 h) dosing, mean / HVA/DA, acute (2 h) dosing, mean: striatum 2 h after dose
Description: Measurements of tissue dopamine levels were performed at CDC-NIOSH. […] Striatum was rapidly dissected from each mouse brain, weighed, and placed into Eppendorf tubes that were frozen in liquid nitrogen and stored at -80 °C. […] Tissues were homogenized in 100 μl of ice-cold 0.2 M perchloric acid containing 1 μM dihydroxybenzylamine (DHBA) as an internal standard and centrifuged at 10,000×g for 10 min at 4 °C. The supernatant was filtered through a 0.2 μm nitrocellulose membrane, and an aliquot (10 μl) was injected from a temperature-controlled (4 °C) automatic sample injector (Waters 717plus Autosampler) connected to a Waters 515 HPLC pump. Catecholamines were separated on a C18 reverse-phase column ([…]; Waters […] 25 cm×4.6 mm; 5 μm), electrochemically detected (Waters 464 Pulsed Electrochemical Detector; range 10 nA, potential +0.7 V), and analyzed using Millennium software. […] A flow rate of 1 ml/min was used. […] The recovery of each analyte was adjusted with respect to the internal standard and quantified from a standard curve. The levels of dopamine and its metabolites, DOPAC and HVA, were calculated from the AUC values for each (based on microgram per gram (μg/g) tissue wet weight) and expressed as a percent of the saline control.

[4] = tested on: extracellular dopamine; test: In vivo microdialysis of dopamine and DOPAC in striatum and prefrontal cortex; details: rats
Description: On the day of the experiment (24–48 h after surgery), the microdialysis probes of each animal were connected via the use of flexible PEEK tubing to a microperfusion pump (Harvard Apparatus, PHD 2000 Holliston, MA). Artificial CSF, composed of 147 mM NaCl, 3 mM KCl, 1.2 mM CaCl2, and 1.2 mM MgCl2 was used to perfuse the probes (1.5 μl/min) beginning at 75 min prior to drug treatment. Baseline dialysate collection was begun for all rats 60 min prior to drug administration (t=−60 min) such that a total of […] were collected prior to drug treatment (t=0). […] A control group of rats (N=9) received only the 0.5 % methylcellulose vehicle solution, delivered orally (p.o.). All drug solutions were delivered in a volume of 1 ml/kg of body weight. Every 20 min for the following 3 h, dialysate was collected from both brain regions of each rat. Dialysates were collected into mini-vials containing 7.5 μl of 0.02 M formic acid using an automated fraction collector Univentor 820, Malta. Tubes containing dialysate samples were then frozen at −80 °C until analyzed by HPLC for levels of dopamine and the dopamine metabolite, DOPAC. […] Coronal sections were prepared of each rat brain to verify the position of the dialysis collection probes. Dopamine and DOPAC concentrations were determined in each sample using HPLC separation and electrochemical detection. An aliquot (20 μl) of each dialysate sample was injected onto the HPLC column by means of a refrigerated microsampler system, consisting of a syringe pump (Gilson, model 402), a multi-column injector (Gilson, model 233 XL), and a temperature regulator (Gilson, model 832). The chromatographic separation was performed on a reverse-phase 150 ×2.1 mm (3 μm) C18 Thermo BDS Hypersil column (Keystone Scientific). […] The mobile phase was run at a flow rate of 0.35 ml/min using an HPLC pump (Shimadzu, model LC-10AD vp). Dopamine and DOPAC were electrochemically detected using a potentiostat (Antec Leyden, model Intro) fitted with a glassy carbon electrode set a +500 mV versus Ag/AgCl (Antec, Leyden). Data were analyzed using Chromatography Data System software (Shimadzu, Class-VP, Japan) using an external standard method to quantify concentrations of dopamine and DOPAC. […] Drug effects were expressed as percentages of basal level (mean±SEM) within the same subject. Statistical analysis was performed using Sigmastat for Windows (SPSS Corporation). Drug effects were compared with baseline and vehicle control using a two-way ANOVA for repeated measurements followed by the Newman–Keuls post hoc test. […] For all tests, the level of statistical significance was set at p<0.05.

[5] = tested on: GluN2B phosphorylated at tyrosine (Y) 1472; test: GluN2B Y1472 phosphorylation state in nucleus accumbens; format: in vivo; details: mice, 1 mg/kg p.o., 120 min after administration
Description: Brains were rapidly removed from the skull. […] Brain tissue was prepared for SDS-PAGE as described above, and protein homogenates (15 μg) were separated on 3-7 % gradient gels, and proteins transferred to nitrocellulose membranes. Portions of each membrane were immunoblotted for GluN2B phosphorylated at […] (rabbit polyclonal) and total GluN2B (mouse monoclonal) (Thermo Fisher Scientific, Rockford, IL).

[6] = tested on: forelimb catalepsy; test: Forelimb catalepsy, bar grip test; details: mice, 3 mg/kg p.o.; each time point (120-360 min); vs vehicle
Description: Forelimb catalepsy was measured using the bar grip test. Mice were placed in a Lucite mouse cage outfitted with a 3-mm diameter wooden rod suspended 4 cm from the floor of the cage. During testing, the mouse was allowed to grip the bar firmly with hind legs placed firmly on the floor of the cage. The mouse was required to maintain this posture for at least 10 s for a valid test session. Catalepsy was then quantitated by recording the latency (in seconds) to step both front paws down to the floor of the cage up to a maximum time of 120 s. If the mouse stepped off the bar immediately (less than 10 s), another attempt was made up to a maximum of ten attempts. The longest duration of immobility was recorded if none of the ten attempts were beyond 10 s. Catalepsy was measured for each mouse at 2, 3, 4, and 6 h after drug administration. Mean forelimb catalepsy time (in seconds) was calculated across each group and time point. Data were analyzed using ANOVA with Newman–Keuls post hoc test.

[7] = 1 mg/kg p.o. once daily 21 days
[8] = 3 mg/kg p.o. once daily 21 days
[9] = 10 mg/kg p.o. once daily 21 days
[10] = 30 mg/kg p.o. once daily 21 days

Structure (SMILES) | ID50, inhibition of D-AMPH-induced hyperactivity [1] [mg/kg] | Effect on TH phosphorylation at S40 in striatum [2] | DOPAC/DA, chronic (21 day) dosing, mean [3, 7] | HVA/DA, chronic (21 day) dosing, mean [3, 7] | DOPAC/DA, acute (2 h) dosing, mean ([3]; 1 mg/kg p.o. once) | HVA/DA, acute (2 h) dosing, mean ([3]; 1 mg/kg p.o. once) | DOPAC/DA, chronic (21 day) dosing, mean [3, 8] | HVA/DA, chronic (21 day) dosing, mean [3, 8] | DOPAC/DA, acute (2 h) dosing, mean ([3]; 3 mg/kg p.o. once) | HVA/DA, acute (2 h) dosing, mean ([3]; 3 mg/kg p.o. once) | also measured
O=C(CCCN1CCC(O)(c2ccc(Cl)cc2)CC1)c1ccc(F)cc1 [Haloperidol] | 0.04 | significantly increase | 18.26 ^*, ^**, ^*** | 29.23 ^*, ^**, ^*** | 19.69 ^*, ^**, ^*** | 31.04 ^*, ^**, ^*** | 17.00 ^*, ^**, ^*** | 24.15 ^*, ^**, ^*** | 22.68 ^*, ^**, ^*** | 28.14 ^*, ^**, ^*** | DA and DOPAC efflux in striatum ([4]; 0.3 mg/kg s.c., p<0.001 vs vehicle): significant increase; DA and DOPAC levels in mPFC ([4]; 0.3 mg/kg s.c., p<0.01 (DA), p<0.001 (DOPAC) vs vehicle): elevated; GluN2B phosphorylation at Y1472 in nucleus accumbens [5]: 177±28 % of control; Forelimb catalepsy, bar grip test [6]: profound forelimb catalepsy
CN1CCN(C2=Nc3cc(Cl)ccc3Nc3ccccc32)CC1 [Clozapine] |  | did not significantly affect |  |  |  |  |  |  |  |  | 
Cc1nc2n(c(=O)c1CCN1CCC(c3noc4cc(F)ccc34)CC1)CCCC2 [Risperidone] | 0.33 | significantly increase | 16.35 ^*, ^**, ^*** | 29.37 ^*, ^**, ^*** | 14.35 ^*, ^**, ^*** | 30.71 ^*, ^**, ^*** |  |  |  |  | DOPAC/DA, chronic (21 day) dosing, mean [3, 9]: 25.12 ^*, ^**, ^***; HVA/DA, chronic (21 day) dosing, mean [3, 9]: 36.39 ^*, ^**, ^***; DOPAC/DA, acute (2 h) dosing, mean ([3]; 10 mg/kg p.o. once): 30.98 ^*, ^**, ^***; HVA/DA, acute (2 h) dosing, mean ([3]; 10 mg/kg p.o. once): 23.06 ^*, ^**, ^***
O=C1CCc2ccc(OCCCCN3CCN(c4cccc(Cl)c4Cl)CC3)cc2N1 [Aripiprazole] | 4.65 | did not significantly affect |  |  |  |  | 8.27 ^*, ^** | 12.14 ^* | 8.57 | 12.63 | DOPAC/DA, chronic (21 day) dosing, mean [3, 10]: 7.25 ^*, ^**; HVA/DA, chronic (21 day) dosing, mean [3, 10]: 12.32 ^*; DOPAC/DA, acute (2 h) dosing, mean ([3]; 30 mg/kg p.o. once): 11.89; HVA/DA, acute (2 h) dosing, mean ([3]; 30 mg/kg p.o. once): 11.20; DA or DOPAC efflux in striatum or mPFC ([4]; 30 mg/kg p.o.): did not significantly affect
Cc1cc2c(s1)Nc1ccccc1N=C2N1CCN(C)CC1 [Olanzapine] |  | significantly increase |  |  |  |  |  |  |  |  | 
